# Test system: BR5270 transgenic Caenorhabditis elegans strain
# Test: Survival (lifespan) in the preclinical Tau C. elegans model
# Type: in vivo
# Conditions: for Survival of C. elegans: 40 μM; for % Alive: BR5270, 40 μM
# Description: Many neurodegenerative diseases and conditions associated with neuronal insult are characterized by intracellular aggregates of the microtubule associated protein Tau. […] Due to the significant impact on lifespan and locomotion defect produced by this model, time/cost-effective and high throughput acquisition of data, the C. elegans model of tauopathy serves as an advantageous screening tool for the discovery of novel modulators of neurodegeneration.
# Cannabinoid botanical drug substances (20 μM, 40 μM, 80 μM) were prepared in accordance with the protocol described in Example 1 above. The exemplary cannabinoid botanical drug substance used in the study of this example includes CBD, CBG and THC present as the major components in a ratio of 50:20:1.
# The effect of the two different complex botanical mixtures described above were compared to the comparative control, cannabidiol (40 μM) and a no treatment negative control in the BR5270 transgenic strain. Additional no-treatment negative control and healthspan extension positive control (cannabidiol 40 μM) in wild-type arms served as added comparators. All examinations were performed in triplicate. The impact of three doses of each compound on animal survival and activity levels were examined on days 4, 8, 12, and 16 of animal life. These time points represent the first day of adulthood, early-, mid-, and late-life periods in the C. elegans lifespan.
smiles,measurement,setting,value
"C=C(C)[C@@H]1CCC(C)=C[C@H]1c1c(O)cc(CCCCC)cc1O [CBD, cannabidiol]",Survival of C. elegans,Day 12 (Table 1b summary),39
same,Survival of C. elegans,Day 16 (Table 1b summary),10
same,% Alive,day 4 of animal life,100%
same,% Alive,day 8 of animal life,73.17%
same,% Alive,day 12 of animal life,39.39%
same,% Alive,day 16 of animal life,9.738%

# — patent publication US20260216218A1, “CANNABINOID COMPOSITIONS, AND USES THEREOF IN TREATMENT OF NEURODEGENERATIVE DISEASES OR DISORDERS AND CANCERS” (Biopharmaceutical Research Company, priority 2023, published 2026)
